Test results from US8828908B2, “Herbicidally active bicyclic 1,3-dione compounds” (Syngenta Limited, priority 2007, dated 2014).

What was measured:
Assay type in all cases: in vivo
[1] = tested on: Avena fatua (AVEFA); assay: Example A pre-emergence herbicidal glasshouse test; conditions: 312 h, Rate 250 g/ha, evaluated after 13 days, 100=total damage to plant, 0=no damage to plant
Procedure, shortened: (§1)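 Herbicidal effect was judged 13 days after treatment as percent-style damage (100 = total kill). Seeds in standard soil had grown 1 day (pre) or 8 days (post) in a 24/16 °C, 14 h light, 65% humidity glasshouse before spraying with compound in acetone/water (50:50) containing 0.5% Tween 20.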

[2] = tested on: Alopecurus myosuroides (ALOMY); assay: Example A pre-emergence herbicidal glasshouse test; conditions: 312 h, Rate 250 g/ha, evaluated after 13 days, 100=total damage to plant, 0=no damage to plant
Procedure, shortened: as §1

[3] = tested on: Amaranthus retroflexus (AMARE); assay: Example A pre-emergence herbicidal glasshouse test; conditions: 312 h, Rate 250 g/ha, evaluated after 13 days, 100=total damage to plant, 0=no damage to plant
Procedure, shortened: as §1

[4] = tested on: Solanum nigrum (SOLNI); assay: Example A pre-emergence herbicidal glasshouse test; conditions: Rate 250 g/ha, evaluated after 13 days, 100=total damage to plant, 0=no damage to plant
Procedure, shortened: as §1

[5] = tested on: Setaria faberi (SETFA); assay: Example A pre-emergence herbicidal glasshouse test; conditions: 312 h, Rate 250 g/ha, evaluated after 13 days, 100=total damage to plant, 0=no damage to plant
Procedure, shortened: as §1

[6] = tested on: Echinochloa crus-galli (ECHCG); assay: Example A pre-emergence herbicidal glasshouse test; conditions: 312 h, Rate 250 g/ha, evaluated after 13 days, 100=total damage to plant, 0=no damage to plant
Procedure, shortened: as §1

[7] = tested on: Avena fatua (AVEFA); assay: Example A post-emergence herbicidal glasshouse test; conditions: 312 h, evaluated after 13 days, 100=total damage to plant, 0=no damage
Procedure, shortened: as §1

[8] = tested on: Alopecurus myosuroides (ALOMY); assay: as above; conditions: 312 h, evaluated after 13 days, 100=total damage to plant, 0=no damage
Procedure, shortened: as §1

[9] = tested on: Amaranthus retroflexus (AMARE); assay: as above; conditions: 312 h, evaluated after 13 days, 100=total damage to plant, 0=no damage
Procedure, shortened: as §1

[10] = tested on: Solanum nigrum (SOLNI); assay: as above; conditions: 250 g/ha, evaluated after 13 days, 100=total damage to plant, 0=no damage
Procedure, shortened: as §1

[11] = tested on: Setaria faberi (SETFA); assay: as above; conditions: 312 h, evaluated after 13 days, 100=total damage to plant, 0=no damage
Procedure, shortened: as §1

[12] = tested on: Echinochloa crus-galli (ECHCG); assay: as above; conditions: 312 h, evaluated after 13 days, 100=total damage to plant, 0=no damage
Procedure, shortened: as §1

[13] = tested on: Lolium perenne (LOLPE); assay: Example B pre-emergence herbicidal greenhouse test; conditions: 480 h, evaluated after 20 days, 100=total damage to plant, 0=no damage
Procedure, shortened: (§2)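 Pot test: glasshouse-sown pots sprayed 1 day after sowing (pre-emergence) or as 10-day-old seedlings (post-emergence) with aqueous spray from an acetone/emulsifier-solvent formulation of technical compound; damage rated 20 days (pre) or 15 days (post) after treatment on 0-100 scale.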

[14] = tested on: Avena fatua (AVEFA); assay: Example B pre-emergence herbicidal greenhouse test; conditions: 480 h, evaluated after 20 days, 100=total damage to plant, 0=no damage
Procedure, shortened: as §2

[15] = tested on: Alopecurus myosuroides (ALOMY); assay: Example B pre-emergence herbicidal greenhouse test; conditions: 480 h, evaluated after 20 days, 100=total damage to plant, 0=no damage
Procedure, shortened: as §2

[16] = tested on: Setaria faberi (SETFA); assay: Example B pre-emergence herbicidal greenhouse test; conditions: 480 h, evaluated after 20 days, 100=total damage to plant, 0=no damage
Procedure, shortened: as §2

[17] = tested on: Echinochloa crus-galli (ECHCG); assay: Example B pre-emergence herbicidal greenhouse test; conditions: 480 h, evaluated after 20 days, 100=total damage to plant, 0=no damage
Procedure, shortened: as §2

[18] = tested on: Digitaria sanguinalis (DIGSA); assay: Example B pre-emergence herbicidal greenhouse test; conditions: 480 h, evaluated after 20 days, 100=total damage to plant, 0=no damage
Procedure, shortened: as §2

[19] = tested on: Lolium perenne (LOLPE); assay: Example B post-emergence herbicidal greenhouse test; conditions: 360 h, evaluated after 15 days, 100=total damage to plant, 0=no damage
Procedure, shortened: as §2

[20] = tested on: Avena fatua (AVEFA); assay: as above; conditions: 360 h, evaluated after 15 days, 100=total damage to plant, 0=no damage
Procedure, shortened: as §2

[21] = tested on: Alopecurus myosuroides (ALOMY); assay: as above; conditions: 360 h, evaluated after 15 days, 100=total damage to plant, 0=no damage
Procedure, shortened: as §2

[22] = tested on: Setaria faberi (SETFA); assay: as above; conditions: 360 h, evaluated after 15 days, 100=total damage to plant, 0=no damage
Procedure, shortened: as §2

[23] = tested on: Echinochloa crus-galli (ECHCG); assay: as above; conditions: 360 h, evaluated after 15 days, 100=total damage to plant, 0=no damage
Procedure, shortened: as §2

[24] = tested on: Digitaria sanguinalis (DIGSA); assay: as above; conditions: 360 h, evaluated after 15 days, 100=total damage to plant, 0=no damage
Procedure, shortened: as §2

Structure (SMILES)	pest or weed control at 250 g/ha [1] [%]	pest or weed control at 250 g/ha [2] [%]	pest or weed control at 250 g/ha [3] [%]	pest or weed control at 250 g/ha [5] [%]	pest or weed control at 250 g/ha [6] [%]	pest or weed control at 250 g/ha [7] [%]	pest or weed control at 250 g/ha [8] [%]	pest or weed control at 250 g/ha [9] [%]	SOLNI damage to plant [10]	pest or weed control at 250 g/ha [11] [%]	pest or weed control at 250 g/ha [12] [%]	pest or weed control at 250 g/ha [13] [%]	pest or weed control at 250 g/ha [14] [%]	pest or weed control at 250 g/ha [15] [%]	pest or weed control at 250 g/ha [16] [%]	pest or weed control at 250 g/ha [17] [%]	pest or weed control at 250 g/ha [18] [%]	pest or weed control at 125 g/ha [19] [%]	pest or weed control at 125 g/ha [20] [%]	pest or weed control at 125 g/ha [21] [%]	other results
Cc1ccc(-c2cccc(F)c2)cc1C1=C(O)[C@H]2CC[C@H](C2)C1=O (single isomer, unassigned) [Compound T13]	0	0	0	0	0	0	0	0	0	0	10										SOLNI damage to plant [4]: 0
CCc1ccc(-c2ccc(C)c(C3=C(O)[C@H]4CC[C@H](C4)C3=O)c2)cc1 (single isomer, unassigned) [Compound T14]	0	0	0	0	0	0	0	0	0	70	30										SOLNI damage to plant [4]: 0
Cc1cc(C)c(-c2ccc(C)c(C3=C(O)[C@H]4CC[C@H](C4)C3=O)c2)c(C)c1 (single isomer, unassigned) [Compound T15]	0	0	0	0				0	0	0											
Cc1ccc(-c2ccccc2F)cc1C1=C(O)[C@H]2CC[C@H](C2)C1=O (single isomer, unassigned) [Compound T16]	0	0	0	0	0	0	0	0	0	0	0										SOLNI damage to plant [4]: 0
Cc1ccc(-c2ccc(F)cc2)cc1C1=C(O)[C@H]2CC[C@H](C2)C1=O (single isomer, unassigned) [Compound T17]	10	0	0	80	50	0	10	0	0	80	70										SOLNI damage to plant [4]: 0
CCc1ccc(-c2ccc(Cl)cc2)cc1C1=C(O)[C@H]2CC[C@H](CC2)C1=O [Compound T54, 3-(4′-chloro-4-ethylbiphen-3-yl)bicyclo[3.2.2]nonane-2,4-dione]	90	90	40	100	100	100	100	0		100	100	100	50	70	90	100	100	60	70	90	pest or weed control at 125 g/ha [22]: 100%; pest or weed control at 125 g/ha [23]: 100%; pest or weed control at 125 g/ha [24]: 100%
CCc1cc(-c2ccc(Cl)cc2)ccc1C1=C(O)[C@H]2CC[C@H](C2)C1=O [Compound T59, 3-(4′-chloro-3-ethylbiphen-4-yl)bicyclo[3.2.1]octane-2,4-dione]	70	70	0	100	100	90	100	30		100	100	80	70	80	100	100	90	80	30	90	pest or weed control at 125 g/ha [22]: 100%; pest or weed control at 125 g/ha [23]: 100%; pest or weed control at 125 g/ha [24]: 100%
Cc1cc(-c2ccc(Cl)cc2)ccc1C1=C(O)[C@H]2CC[C@H](C2)C1=O [Compound T61, 3-(4′-chloro-3-methylbiphen-4-yl)bicyclo[3.2.1]octane-2,4-dione]	30	40	0	90	80	60	100	20		100	100	90	40	100	100	90	100	30	30	60	pest or weed control at 125 g/ha [22]: 90%; pest or weed control at 125 g/ha [23]: 80%; pest or weed control at 125 g/ha [24]: 100%
CCc1cc(-c2ccc(Cl)cc2)cc(CC)c1C1=C(O)[C@H]2CC[C@H](C2)C1=O [Compound T62, 3-(4′-chloro-3,5-diethylbiphen-4-yl)bicyclo[3.2.1]octane-2,4-dione]	80	80	20	100	100	90	100	0		100	100	100	50	100	100	100	100	50	60	60	pest or weed control at 125 g/ha [22]: 100%; pest or weed control at 125 g/ha [23]: 100%; pest or weed control at 125 g/ha [24]: 100%
CCc1cc(-c2ccc(C)cc2)cc(CC)c1C1=C(O)[C@H]2CC[C@H](C2)C1=O [Compound T63]	30	50	0	100	90	50	70	0		100	100	100	20	80	70	60	90	10	20	0	pest or weed control at 125 g/ha [22]: 50%; pest or weed control at 125 g/ha [23]: 50%; pest or weed control at 125 g/ha [24]: 60%
